Assay results from article PMC5769417, “Single- and Multiple-Dose Trials to Determine the Pharmacokinetics, Safety, Tolerability, and Sex Effect of Oral Ginsenoside Compound K in Healthy Chinese Volunteers” (Frontiers in Pharmacology, 2018).
Where two headings read alike, the source gives them in different places. Marks after values point to notes of the source that are not given here.

Assays:
[1] = Phase 0 cross-over trial, sex differences in pharmacokinetics; type: in vivo, human; details: phase 0 trial; for half-life / Tmax: human, plasma, oral; for Tmax: read-out: Tmax, median (range); for Cmax/D, dose-normalized Cmax: in ng·ml⁻¹·mg⁻¹
Procedure: Cmax/D, dose-normalized Cmax value; Tmax, time to maximum plasma concentration; t1/2, terminal half-life; AUClast/D, dose-normalized AUClast value; AUCinf/D, dose-normalized AUCinf value; All values are presented as mean ± SD, except for Tmax, which is expressed as median (range). SD, standard deviation. PK parameters were compared between male and female by independent-sample t-test. A non-parametric test was performed on the Tmax and t1/2. * Compared with Male, p < 0.05. These were the results of phase 0 trial, which was a cross-over clinical trial and included 12 males and 12 females.

[2] = test system: healthy Chinese volunteers; assay: Single-dose trial, safety and tolerability (adverse events); type: in vivo, human
Procedure: Single-dose pharmacokinetics: The single-dose trial was performed first. Seven doses of CK were given orally under fasting condition: 25, 50, 100, 200, 400, 600, and 800 mg. Eligible subjects (n = 76, male:female = 1:1) were randomized into each dose level (n = 8, 8, 10, 10, 10, 8, 8, respectively) or placebo groups (n = 2 for each dose group) with equal number of men and women in each group. Subjects in each group were admitted to the clinical facility the day before drug administration and received the corresponding dose of the test drug or placebo with 250 ml warm water on the morning of the dosing day. Drinking before and after medication was prohibited for 2 h, but the amount and time of drinking were not strictly controlled at other times. All subjects had standard lunch and dinner (unified light diet) after medication 4 and 10 h.
Safety was evaluated by continuous observation of adverse events (AEs), monitoring of vital signs, ECG, hematology, biochemistry, and urinalysis at baseline, during the trials at the set time points following drug administration, and at follow-up visits after study completion. AEs were classified by their intensity into mild, moderate and severe. Additionally, the AEs were also classified according their relationship to the test drug as positive, probable, possible, remote, or unrelated. The severity of the AEs, as well as their relationship to test drug, was assessed by a qualified physician in the unit. Clinically relevant changes in vital signs, ECG and laboratory parameters were defined as marked abnormalities. ECG were recorded in the semisupine position after a rest of at least 5 min. It is worth noting that all the information, including symptoms and signs after dosing or the medications that the subjects were concomitantly taking must be recorded on the case-report form by investigators. All available data from subjects who received the test drug and placebo were included in the summaries of the safety data and were descriptively analyzed. In addition, the differences between laboratory parameters at baseline and after drug treatment were analyzed to determine whether there were clinical significances.
All the safety data, including vital signs, laboratory indexes and ECG, were descriptively analyzed, and the statistical analyses were conducted to evaluate the effects of the test drug by comparing the differences between before and after drug treatment, between the test drug group and the placebo group and among the different dose groups.

[3] = single-dose trial, 25 mg (n = 8)
[4] = single-dose trial, 50 mg (n = 8)
[5] = single-dose trial, 100 mg (n = 10)
[6] = single-dose trial, 200 mg (n = 10)
[7] = single-dose trial, 400 mg (n = 10)
[8] = single-dose trial, 600 mg (n = 8)
[9] = single-dose trial, 800 mg (n = 8)
[10] = single-dose trial, of the 44 cases of AEs

`CC(C)=CCC[C@](C)(OC1O[C@H](CO)[C@@H](O)[C@H](O)[C@H]1O)[C@H]1CC[C@]2(C)[C@@H]1[C@H](O)C[C@@H]1[C@@]3(C)CC[C@H](O)C(C)(C)[C@@H]3CC[C@]12C` (stereo partly drawn) [CK, 20-O-beta-D-glucopyranosyl-20(S)-protopanaxadiol] showed a half-life ([1]; Female (n = 12)) of 6.7 ± 1.2 h, a Tmax ([1]; Female (n = 12)) of 2.8 h and a half-life ([1]; Male (n = 12)) of 6.1 ± 1.1 h. For the same compound, the Tmax ([1]; Male (n = 12)) was 3.3 h, the “AUCinf/D, dose-normalized AUCinf” value ([1]; Female (n = 12)) was 2016.33 ± 1124.90* and the “AUClast/D, dose-normalized AUClast” value ([1]; Female (n = 12)) was 1984.33 ± 1809.10*. The “Cmax/D, dose-normalized Cmax” value ([1]; Female (n = 12)) was 24.87 ± 8.23*, the “AUClast/D, dose-normalized AUClast” value ([1]; Male (n = 12)) was 387.86 ± 174.14 and the “Cmax/D, dose-normalized Cmax” value ([1]; Male (n = 12)) was 16.44 ± 2.82. The “ECG after the drug treatments” value ([2]; both trials) was “none of the subjects had clinically significant abnormalities”, the “intensity of all observed AEs” value ([2]; both trials) was “mild or moderate” and the “serious AEs” value ([2]; both trials) was “no serious AEs reported”. The safety and tolerability ([2]; single dose 25 to 800 mg and multiple doses of 100–400 mg, both trials) was “safe and well-tolerated”, the “AEs after taking the test drug” value ([2]; single-dose trial) was 33 AEs and the “subjects who suffered AEs after taking the test drug” value ([2]; single-dose trial) was 22 subjects. The “Alkaline phosphatase increased (study drug-related AE)” value (“Alkaline phosphatase increased” for short) [2, 3] was 0 number of subjects (%), the “Any AEs (study drug-related)” value [2, 3] was 0 number of subjects (%) and the “Bellyache (study drug-related AE)” value [2, 3] was 0 number of subjects (%). For the same compound, the “Blood white cells increased (study drug-related AE)” value (shortened to “Blood white cells increased”) [2, 3] was 0 number of subjects (%), the “Diarrhea (study drug-related AE)” value [2, 3] was 0 number of subjects (%) and the “Direct bilirubin increased (study drug-related AE)” value (“Direct bilirubin increased” for short) [2, 3] was 0 number of subjects (%). The “Dizziness (study drug-related AE)” value [2, 3] was 0 number of subjects (%), the “Headache (study drug-related AE)” value [2, 3] was 0 number of subjects (%) and the “Loss of appetite (study drug-related AE)” value [2, 3] was 0 number of subjects (%). The “Nausea (study drug-related AE)” value [2, 3] was 0 number of subjects (%), the “Rash (study drug-related AE)” value [2, 3] was 0 number of subjects (%) and the “Subcutaneous bleeding (double forearm) (study drug-related AE)” value (shortened to “Subcutaneous bleeding (double forearm)”) [2, 3] was 0 number of subjects (%). The “Total bilirubin increased (study drug-related AE)” value (“Total bilirubin increased” below) [2, 3] was 0 number of subjects (%), the “Alkaline phosphatase increased” value [2, 4] was 0 number of subjects (%) and the “Any AEs (study drug-related)” value [2, 4] was 2 (2.6) number of subjects (%). For the same compound, the “Bellyache (study drug-related AE)” value [2, 4] was 0 number of subjects (%), the “Blood white cells increased” value [2, 4] was 0 number of subjects (%) and the “Diarrhea (study drug-related AE)” value [2, 4] was 0 number of subjects (%). For the same compound, the “Direct bilirubin increased” value [2, 4] was 2 (2.6) number of subjects (%), the “Dizziness (study drug-related AE)” value [2, 4] was 0 number of subjects (%) and the “Headache (study drug-related AE)” value [2, 4] was 0 number of subjects (%). The “Loss of appetite (study drug-related AE)” value [2, 4] was 0 number of subjects (%), the “Nausea (study drug-related AE)” value [2, 4] was 0 number of subjects (%) and the “Rash (study drug-related AE)” value [2, 4] was 0 number of subjects (%). The “Subcutaneous bleeding (double forearm)” value [2, 4] was 0 number of subjects (%), the “Total bilirubin increased” value [2, 4] was 0 number of subjects (%) and the “Alkaline phosphatase increased” value [2, 5] was 0 number of subjects (%). The “Any AEs (study drug-related)” value [2, 5] was 2 (2.6) number of subjects (%), the “Bellyache (study drug-related AE)” value [2, 5] was 0 number of subjects (%) and the “Blood white cells increased” value [2, 5] was 0 number of subjects (%). For the same compound, the “Diarrhea (study drug-related AE)” value [2, 5] was 0 number of subjects (%), the “Direct bilirubin increased” value [2, 5] was 0 number of subjects (%) and the “Dizziness (study drug-related AE)” value [2, 5] was 1 (1.3) number of subjects (%). The “Headache (study drug-related AE)” value [2, 5] was 1 (1.3) number of subjects (%), the “Loss of appetite (study drug-related AE)” value [2, 5] was 0 number of subjects (%) and the “Nausea (study drug-related AE)” value [2, 5] was 0 number of subjects (%). For the same compound, the “Rash (study drug-related AE)” value [2, 5] was 0 number of subjects (%), the “Subcutaneous bleeding (double forearm)” value [2, 5] was 0 number of subjects (%) and the “Total bilirubin increased” value [2, 5] was 0 number of subjects (%). The “Alkaline phosphatase increased” value [2, 6] was 1 (1.3) number of subjects (%), the “Any AEs (study drug-related)” value [2, 6] was 5 (6.6) number of subjects (%) and the “Bellyache (study drug-related AE)” value [2, 6] was 0 number of subjects (%). For the same compound, the “Blood white cells increased” value [2, 6] was 0 number of subjects (%), the “Diarrhea (study drug-related AE)” value [2, 6] was 2 (2.6) number of subjects (%) and the “Direct bilirubin increased” value [2, 6] was 2 (2.6) number of subjects (%). The “Dizziness (study drug-related AE)” value [2, 6] was 0 number of subjects (%), the “Headache (study drug-related AE)” value [2, 6] was 0 number of subjects (%) and the “Loss of appetite (study drug-related AE)” value [2, 6] was 0 number of subjects (%). The “Nausea (study drug-related AE)” value [2, 6] was 0 number of subjects (%), the “Rash (study drug-related AE)” value [2, 6] was 0 number of subjects (%) and the “Subcutaneous bleeding (double forearm)” value [2, 6] was 0 number of subjects (%). The “Total bilirubin increased” value [2, 6] was 1 (1.3) number of subjects (%), the “Alkaline phosphatase increased” value [2, 7] was 0 number of subjects (%) and the “Any AEs (study drug-related)” value [2, 7] was 5 (6.6) number of subjects (%). For the same compound, the “Bellyache (study drug-related AE)” value [2, 7] was 1 (1.3) number of subjects (%), the “Blood white cells increased” value [2, 7] was 1 (1.3) number of subjects (%) and the “Diarrhea (study drug-related AE)” value [2, 7] was 2 (2.6) number of subjects (%). For the same compound, the “Direct bilirubin increased” value [2, 7] was 1 (1.3) number of subjects (%), the “Dizziness (study drug-related AE)” value [2, 7] was 0 number of subjects (%) and the “Headache (study drug-related AE)” value [2, 7] was 1 (1.3) number of subjects (%). For the same compound, the “Loss of appetite (study drug-related AE)” value [2, 7] was 0 number of subjects (%), the “Nausea (study drug-related AE)” value [2, 7] was 0 number of subjects (%) and the “Rash (study drug-related AE)” value [2, 7] was 0 number of subjects (%). For the same compound, the “Subcutaneous bleeding (double forearm)” value [2, 7] was 0 number of subjects (%), the “Total bilirubin increased” value [2, 7] was 0 number of subjects (%) and the “Alkaline phosphatase increased” value [2, 8] was 0 number of subjects (%). For the same compound, the “Any AEs (study drug-related)” value [2, 8] was 1 (1.3) number of subjects (%), the “Bellyache (study drug-related AE)” value [2, 8] was 0 number of subjects (%) and the “Blood white cells increased” value [2, 8] was 0 number of subjects (%). For the same compound, the “Diarrhea (study drug-related AE)” value [2, 8] was 0 number of subjects (%), the “Direct bilirubin increased” value [2, 8] was 1 (1.3) number of subjects (%) and the “Dizziness (study drug-related AE)” value [2, 8] was 0 number of subjects (%). The “Headache (study drug-related AE)” value [2, 8] was 0 number of subjects (%), the “Loss of appetite (study drug-related AE)” value [2, 8] was 0 number of subjects (%) and the “Nausea (study drug-related AE)” value [2, 8] was 0 number of subjects (%). The “Rash (study drug-related AE)” value [2, 8] was 0 number of subjects (%), the “Subcutaneous bleeding (double forearm)” value [2, 8] was 0 number of subjects (%) and the “Total bilirubin increased” value [2, 8] was 0 number of subjects (%). For the same compound, the “Alkaline phosphatase increased” value [2, 9] was 0 number of subjects (%), the “Any AEs (study drug-related)” value [2, 9] was 3 (3.9) number of subjects (%) and the “Bellyache (study drug-related AE)” value [2, 9] was 1 (1.3) number of subjects (%). For the same compound, the “Blood white cells increased” value [2, 9] was 0 number of subjects (%), the “Diarrhea (study drug-related AE)” value [2, 9] was 1 (1.3) number of subjects (%) and the “Direct bilirubin increased” value [2, 9] was 0 number of subjects (%). The “Dizziness (study drug-related AE)” value [2, 9] was 0 number of subjects (%), the “Headache (study drug-related AE)” value [2, 9] was 0 number of subjects (%) and the “Loss of appetite (study drug-related AE)” value [2, 9] was 0 number of subjects (%). For the same compound, the “Nausea (study drug-related AE)” value [2, 9] was 0 number of subjects (%), the “Rash (study drug-related AE)” value [2, 9] was 1 (1.3) number of subjects (%) and the “Subcutaneous bleeding (double forearm)” value [2, 9] was 0 number of subjects (%). The “Total bilirubin increased” value [2, 9] was 0 number of subjects (%), the “AEs possibly related to CK” value [2, 10] was 7 cases and the “AEs probably related to the test drug” value [2, 10] was 13 cases.
